Measured values: ChEMBL document CHEMBL4613209, “Quinolone hybrids and their anti-cancer activities: An overview” (Eur J Med Chem, 2019)

Key:
PC-3 = test: Cytotoxicity against human PC3 cells assessed as reduction in cell viability; assay type: functional, cell-based
MCF7 [1] = test: Cytotoxicity against human MCF7 cells assessed as reduction in cell viability; assay type: functional, cell-based
MGC-803 = test: Cytotoxicity against human MGC803 cells assessed as reduction in cell viability; assay type: functional, cell-based
HepG2 = test: Cytotoxicity against human HepG2 cells assessed as reduction in cell viability; assay type: functional, cell-based
NCI-H460 = test: Cytotoxicity against human NCI-H460 cells assessed as reduction in cell viability; assay type: functional, cell-based
SW-620 = test: Cytotoxicity against human SW620 cells assessed as reduction in cell viability; assay type: functional, cell-based
GES1 = test: Cytotoxicity against human GES-1 cells assessed as reduction in cell viability; assay type: cell-based
A549 = test: Antiproliferative activity against human A549 cells after 72 hrs by MTT assay; assay type: functional, cell-based; conditions: A549, 72 h
HL-60 [2] = test: Antiproliferative activity against human HL60 cells after 72 hrs by MTT assay; assay type: functional, cell-based; conditions: HL-60, 72 h
HL-60 [3] = test: Antiproliferative activity against human HL60 cells by MTT assay; assay type: functional, cell-based
SMMC-7721 = test: Antiproliferative activity against human SMMC7721 cells by MTT assay; assay type: functional, cell-based
L1210 = test: Antiproliferative activity against mouse L1210 cells by MTT assay; assay type: functional, cell-based
EJ = test: Cytotoxicity against human EJ cells assessed as reduction in cell viability by MTT assay; assay type: functional, cell-based
SW480 = test: Cytotoxicity against human SW480 cells assessed as reduction in cell viability by MTT assay; assay type: functional, cell-based
A-431 = test: Cytotoxicity against human A431 cells assessed as reduction in cell viability by MTT assay; assay type: functional, cell-based
SK-MEL3 = test: Cytotoxicity against human SK-MEL-3 cells assessed as reduction in cell viability by MTT assay; assay type: functional, cell-based
MCF7 [4] = test: Cytotoxicity against human MCF7 cells assessed as reduction in cell viability by MTT assay; assay type: functional, cell-based

Structure (SMILES)	IC50 (PC-3) [µM]	IC50 (MCF7 [1]) [µM]	IC50 (MGC-803) [µM]	IC50 (HepG2) [µM]	IC50 (NCI-H460) [µM]	IC50 (SW-620) [µM]	IC50 (GES1) [µM]	further results
C[C@H]1COc2c(N3CCN(C)CC3)c(F)cc3c(=O)c(-c4nnc(NC(=O)CCCCCCCC(=O)O)s4)cn1c23	1.1 to 14.3	1.1 to 14.3	1.1 to 14.3	1.1 to 14.3	1.1 to 14.3	1.1 to 14.3	> 81.5	–
N=C(NS(=O)(=O)c1ccccc1Cl)N1CCN(c2cc3c(cc2F)c(=O)c(C(=O)O)cn3C2CC2)CC1	–	–	–	–	–	–	–	IC50 (A549): 0.032 to 0.079 µM; IC50 (HL-60 [2]): 0.032 to 0.079 µM
C[C@H]1COc2c(N3CCN(C)CC3)c(F)cc3c(=O)c(-c4nnc(NC(=O)CCCC(=O)NO)s4)cn1c23	0.019 to 0.127	0.019 to 0.127	0.019 to 0.127	0.019 to 0.127	0.019 to 0.127	0.019 to 0.127	> 81.5	–
C[C@H]1COc2c(N3CCN(C)CC3)c(F)cc3c(=O)c(-c4nnc(NC(=O)CCCC(=O)Nc5ccccc5N)s4)cn1c23	0.046 to 0.203	0.046 to 0.203	0.046 to 0.203	0.046 to 0.203	0.046 to 0.203	0.046 to 0.203	> 81.5	–
O=C(O)c1cn(C2CC2)c2c(c1=O)C=C(F)C1=NN=C(c3ccc(F)cc3)CN12	–	–	–	–	–	–	–	IC50 (HL-60 [3]): 1 to 48.6 µM; IC50 (SMMC-7721): 1 to 48.6 µM; IC50 (L1210): 1 to 48.6 µM
C[C@H]1COc2c(N3CCN(C)CC3)c(F)cc3c(=O)c(-c4nnc(NC(=O)CCCCCCCCC(=O)Nc5ccccc5N)s4)cn1c23	0.046 to 0.203	0.046 to 0.203	0.046 to 0.203	0.046 to 0.203	0.046 to 0.203	0.046 to 0.203	> 81.5	–
C[C@H]1COc2c(N3CCN(C)CC3)c(F)cc3c(=O)c(-c4nnc(NC(=O)CCCCCC(=O)O)s4)cn1c23	1.1 to 14.3	1.1 to 14.3	1.1 to 14.3	1.1 to 14.3	1.1 to 14.3	1.1 to 14.3	> 81.5	–
O=C(O)c1cn(C2CC2)c2c(c1=O)C=C(F)C1=NN=C(c3ccc(Br)cc3)CN12	–	–	–	–	–	–	–	IC50 (HL-60 [3]): 1 to 48.6 µM; IC50 (SMMC-7721): 1 to 48.6 µM; IC50 (L1210): 1 to 48.6 µM
COc1ccc(C2=NN=C3C(F)=Cc4c(n(C5CC5)cc(C(=O)O)c4=O)N3C2)cc1	–	–	–	–	–	–	–	IC50 (HL-60 [3]): 1 to 48.6 µM; IC50 (SMMC-7721): 1 to 48.6 µM; IC50 (L1210): 1 to 48.6 µM
COc1ccc(C2=NN=C3C(F)=Cc4c(n(C5CC5)cc(C(=O)O)c4=O)N3C2)cc1OC	–	–	–	–	–	–	–	IC50 (HL-60 [3]): 1 to 48.6 µM; IC50 (SMMC-7721): 1 to 48.6 µM; IC50 (L1210): 1 to 48.6 µM
O=C(O)c1cn(C2CC2)c2c(c1=O)C=C(F)C1=NN=C(c3ccc(O)cc3)CN12	–	–	–	–	–	–	–	IC50 (HL-60 [3]): 1 to 48.6 µM; IC50 (SMMC-7721): 1 to 48.6 µM; IC50 (L1210): 1 to 48.6 µM
C[C@H]1COc2c(N3CCN(C)CC3)c(F)cc3c(=O)c(-c4nnc(NC(=O)CCCCCCC(=O)O)s4)cn1c23	1.1 to 14.3	1.1 to 14.3	1.1 to 14.3	1.1 to 14.3	1.1 to 14.3	1.1 to 14.3	> 81.5	–
C[C@H]1COc2c(N3CCN(C)CC3)c(F)cc3c(=O)c(-c4nnc(NC(=O)CCCC(=O)O)s4)cn1c23	1.1 to 14.3	1.1 to 14.3	1.1 to 14.3	1.1 to 14.3	1.1 to 14.3	1.1 to 14.3	> 81.5	–
CCc1c2c(nc3ccc(OC(=O)N4CCC(N5CCCCC5)CC4)cc13)-c1cc3c(c(=O)n1C2)COC(=O)[C@]3(O)CC [IRINOTECAN]	–	–	–	–	–	–	–	IC50 (HL-60 [2]): 0.032 to 0.044 µM
CCn1cc(C(=O)O)c(=O)c2cc(F)c(N3CCN(C(=N)NS(=O)(=O)c4ccccc4C(F)(F)F)CC3)cc21	–	–	–	–	–	–	–	IC50 (A549): 0.032 to 0.161 µM; IC50 (HL-60 [2]): 0.032 to 0.161 µM
N=C(NS(=O)(=O)c1ccccc1)N1CCN(c2cc3c(cc2F)c(=O)c(C(=O)O)cn3C2CC2)CC1	–	–	–	–	–	–	–	IC50 (A549): 0.032 to 0.161 µM; IC50 (HL-60 [2]): 0.032 to 0.161 µM
C[C@H]1COc2c(N3CCN(C)CC3)c(F)cc3c(=O)c(-c4nnc(NC(=O)CCCCC(=O)NO)s4)cn1c23	0.019 to 0.127	0.019 to 0.127	0.019 to 0.127	0.019 to 0.127	0.019 to 0.127	0.019 to 0.127	> 81.5	–
C[C@H]1COc2c(N3CCN(C)CC3)c(F)cc3c(=O)c(-c4nnc(NC(=O)CCCCCCCC(=O)Nc5ccccc5N)s4)cn1c23	0.046 to 0.203	0.046 to 0.203	0.046 to 0.203	0.046 to 0.203	0.046 to 0.203	0.046 to 0.203	> 81.5	–
C[C@H]1COc2c(N3CCN(C)CC3)c(F)cc3c(=O)c(-c4nnc(NC(=O)CCCCC(=O)Nc5ccccc5N)s4)cn1c23	0.046 to 0.203	0.046 to 0.203	0.046 to 0.203	0.046 to 0.203	0.046 to 0.203	0.046 to 0.203	> 81.5	–
CCn1cc(C(=O)O)c(=O)c2cc(F)c(N3CCNCC3)cc21 [NORFLOXACIN]	–	–	–	–	–	–	–	IC50 (EJ): 137 to 238 µM; IC50 (SW480): 137 to 238 µM; IC50 (A-431): 137 to 238 µM; IC50 (SK-MEL3): 137 to 238 µM; IC50 (A549): > 0.302 µM; IC50 (MCF7 [4]): 137 to 238 µM; IC50 (HL-60 [2]): > 0.302 µM
C[C@H]1COc2c(N3CCN(C)CC3)c(F)cc3c(=O)c(-c4nnc(NC(=O)CCCCCC(=O)Nc5ccccc5N)s4)cn1c23	0.046 to 0.203	0.046 to 0.203	0.046 to 0.203	0.046 to 0.203	0.046 to 0.203	0.046 to 0.203	> 81.5	–
C[C@H]1COc2c(N3CCN(C)CC3)c(F)cc3c(=O)c(-c4nnc(NC(=O)CCCCCCCCC(=O)NO)s4)cn1c23	0.019 to 0.127	0.019 to 0.127	0.019 to 0.127	0.019 to 0.127	0.019 to 0.127	0.019 to 0.127	> 81.5	–
Cc1ccc(S(=O)(=O)NC(=N)N2CCN(c3cc4c(cc3F)c(=O)c(C(=O)O)cn4C3CC3)CC2)cc1	–	–	–	–	–	–	–	IC50 (A549): 0.032 to 0.161 µM; IC50 (HL-60 [2]): 0.032 to 0.161 µM
